Measured values from ChEMBL document CHEMBL5329193, “Targeting Mycobacterium tuberculosis iron-scavenging tools: a recent update on siderophores inhibitors” (RSC Med Chem, 2023).
Values after ≈ are worked out from the molar mass of the structure shown.

Test system: Mycobacterium tuberculosis
Experiment: Antitubercular activity against Multi-drug resistant Mycobacterium tuberculosis assessed as inhibition of bacterial growth incubated for 14 days by microplate alamar blue assay
Type: functional
Details: 336 h, time 14 day

CCCCCCCCCCCCCCCCC(=O)N(O)CCCC[C@H](NC(=O)[C@@H]1COC(c2ccccc2O)=N1)C(=O)NC[C@H](CC(=O)CCCO[C@H]1O[C@@H]2O[C@@]3(C)CC[C@H]4[C@H](C)CC[C@@H]([C@H]1C)[C@@]24OO3)C(=O)N[C@H]1CCCCN(O)C1=O
MIC: 0.16 µg/mL (≈ 0.137 µM)
